Reference: ChEMBL document CHEMBL5584353, “Design, Synthesis, and Biological Evaluation of Potent EZH2/LSD1 Dual Inhibitors for Prostate Cancer” (J Med Chem, 2024)
Active and inactive are the calls of the source. The rule behind the calls is not given here.

Key:
[1] = system: CWR22R; test: Growth inhibition of human 22Rv1 cells incubated for 6 to 7 days by MTS assay; assay type: functional; conditions: time 6-7 day
[2] = system: PC-3; test: Growth inhibition of human PC-3 cells incubated for 6 to 7 days by MTS assay; assay type: functional; conditions: time 6-7 day
[3] = system: LNCaP; test: Growth inhibition of human LNCaP cells incubated for 6 to 7 days by MTS assay; assay type: functional; conditions: time 6-7 day
[4] = Inhibition of LSD2 (unknown origin); design: species or system Homo sapiens
[5] = target: T1, Amine oxidase [flavin-containing] A (Homo sapiens, UniProt P21397); test: Inhibition of MAO-A (unknown origin)
T1 sequence (P21397 whole entry): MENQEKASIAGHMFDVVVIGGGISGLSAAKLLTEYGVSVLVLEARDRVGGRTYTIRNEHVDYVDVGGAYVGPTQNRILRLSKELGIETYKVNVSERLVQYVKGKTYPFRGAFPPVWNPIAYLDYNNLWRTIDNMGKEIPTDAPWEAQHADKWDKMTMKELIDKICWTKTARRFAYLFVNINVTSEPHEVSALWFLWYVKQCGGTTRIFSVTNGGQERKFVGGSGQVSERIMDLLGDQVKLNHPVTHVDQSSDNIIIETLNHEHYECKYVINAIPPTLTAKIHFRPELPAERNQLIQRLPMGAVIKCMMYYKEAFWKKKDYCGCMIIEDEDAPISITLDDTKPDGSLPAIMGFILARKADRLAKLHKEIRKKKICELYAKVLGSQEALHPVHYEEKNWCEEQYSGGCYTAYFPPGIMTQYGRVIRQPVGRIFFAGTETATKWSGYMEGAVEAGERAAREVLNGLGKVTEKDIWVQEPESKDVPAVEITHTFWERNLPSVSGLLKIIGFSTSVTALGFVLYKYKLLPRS

[6] = system: CWR22R; test: Induction of apoptosis in human 22Rv1 cells at 10 uM incubated for 5 days by Annexin V-FITC/PI staining based flow cytometric analysis (reference value: 8.97 %); assay type: functional; conditions: time 5 day
[7] = target: T2, Lysine-specific histone demethylase 1A (Homo sapiens, UniProt O60341); test: Inhibition of recombinant human LSD1 using Histone H3 as fluorometric substrate incubated for 30 mins by HRP based plate reader assay
[8] = target: T2, Lysine-specific histone demethylase 1A; test: Inhibition of LSD1 in human LNCaP cells assessed as upregulation of H3K9me2 expression at 10 uM incubated for 24 hrs by Western blotting analysis; assay type: cell-based
[9] = target: T2, Lysine-specific histone demethylase 1A; test: Inhibition of LSD1 in human 22Rv1 cells assessed as upregulation of H3K9me2 expression at 10 uM incubated for 24 hrs by Western blotting analysis; assay type: cell-based
[10] = target: Histone-lysine N-methyltransferase EZH2 (Homo sapiens) (UniProt Q15910); test: Inhibition of EZH2 in human 22Rv1 cells assessed as downregulation of H3K27me3 expression at 10 uM incubated for 24 hrs by Western blotting analysis; assay type: cell-based
[11] = target: Histone-lysine N-methyltransferase EZH2 (Homo sapiens) (UniProt Q15910); test: Inhibition of EZH2 in human LNCaP cells assessed as downregulation of H3K27me3 expression at 10 uM incubated for 24 hrs by Western blotting analysis; assay type: cell-based
[12] = system: CWR22R; test: Synergistic growth inhibition of human 22Rv1 cells incubated for 6 to 7 days in presence of ORY1001 by MTS assay; assay type: functional; conditions: time 6-7 day
[13] = system: CWR22R; test: Synergistic growth inhibition of human 22Rv1 cells incubated for 6 to 7 days in presence of TCP by MTS assay; assay type: functional; conditions: time 6-7 day
[14] = system: PC-3; test: Synergistic growth inhibition of human PC-3 cells incubated for 6 to 7 days in presence of ORY1001 by MTS assay; assay type: functional; conditions: time 6-7 day
[15] = system: PC-3; test: Synergistic growth inhibition of human PC-3 cells incubated for 6 to 7 days in presence of TCP by MTS assay; assay type: functional; conditions: time 6-7 day
[16] = system: LNCaP; test: Synergistic growth inhibition of human LNCaP cells incubated for 6 to 7 days in presence of ORY1001 by MTS assay; assay type: functional; conditions: time 6-7 day
[17] = system: LNCaP; test: Synergistic growth inhibition of human LNCaP cells incubated for 6 to 7 days in presence of TCP by MTS assay; assay type: functional; conditions: time 6-7 day
[18] = system: CWR22R; test: Synergistic antitumor activity against human 22Rv1 cells xenografted in BALB/c mouse assessed as tumor growth inhibition at 65 mg/kg,ip administrated daily for 31 days in presence of TCP relative to control; conditions: 22Rv1, 744 h, read-out: TGI
[19] = Toxicity in BALB/c mouse xenografted with human 22Rv1 cells assessed as change in body weight at 65 mg/kg,ip administrated daily for 31 days; assay type: organism-based, CWR22R; conditions: in vivo, 744 h, time 31 day
[20] = Toxicity in BALB/c mouse xenografted with human 22Rv1 cells assessed as change in body weight at 65 mg/kg,ip administrated daily for 31 days in presence of TCP; assay type: organism-based, CWR22R; conditions: in vivo, 744 h, time 31 day

Histone-lysine N-methyltransferase EZH2 (Homo sapiens), sequence (Q15910 whole entry, looked up): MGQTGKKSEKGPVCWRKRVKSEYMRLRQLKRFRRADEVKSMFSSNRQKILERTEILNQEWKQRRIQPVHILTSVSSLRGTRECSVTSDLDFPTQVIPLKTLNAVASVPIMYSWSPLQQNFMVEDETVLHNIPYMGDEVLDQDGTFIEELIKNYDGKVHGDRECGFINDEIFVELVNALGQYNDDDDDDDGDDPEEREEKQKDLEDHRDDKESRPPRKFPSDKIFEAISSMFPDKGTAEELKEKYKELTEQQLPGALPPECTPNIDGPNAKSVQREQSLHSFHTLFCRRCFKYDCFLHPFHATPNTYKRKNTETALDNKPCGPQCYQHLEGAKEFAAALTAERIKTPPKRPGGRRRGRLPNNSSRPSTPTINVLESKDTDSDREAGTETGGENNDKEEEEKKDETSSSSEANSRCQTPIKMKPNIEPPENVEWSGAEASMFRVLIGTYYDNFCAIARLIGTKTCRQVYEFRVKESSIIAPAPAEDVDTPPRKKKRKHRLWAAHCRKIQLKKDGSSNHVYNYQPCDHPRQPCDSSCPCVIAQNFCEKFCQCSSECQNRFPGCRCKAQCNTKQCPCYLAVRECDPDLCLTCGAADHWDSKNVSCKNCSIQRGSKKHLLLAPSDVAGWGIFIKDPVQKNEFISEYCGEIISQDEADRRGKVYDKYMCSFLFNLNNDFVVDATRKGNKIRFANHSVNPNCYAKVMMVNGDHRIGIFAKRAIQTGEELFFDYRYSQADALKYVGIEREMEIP

SMILES	GI50 [1]	GI50 [2]	GI50 [3]	IC50 [7]	other results
NC1CCC(N[C@@H]2C[C@H]2c2ccccc2)CC1 (stereo partly drawn)	> 30 µM	> 30 µM	> 30 µM		IC50 [4]: 24.5 µM; IC50 [5]: 0.51 µM; Activity [6]: 11.56%
CCN(c1cc(-c2ccc([C@@H]3C[C@H]3N(CC(=O)N3CCN(C(=O)OC(C)(C)C)CC3)C(=O)OC(C)(C)C)cc2)cc(C(=O)NCc2c(C)cc(C)[nH]c2=O)c1C)C1CCOCC1 (racemic)	13.1 µM	> 30 µM	6.49 µM	> 3 µM	
CCN(c1cc(-c2ccc([C@@H]3C[C@H]3NCC3CCOCC3)cc2)cc(C(=O)NCc2c(C)cc(C)[nH]c2=O)c1C)C1CCOCC1 (racemic)	4.03 µM	9.23 µM	2.64 µM		IC50 [4]: 43.7 µM; IC50 [5]: 2.05 µM
CCN(c1cc(-c2ccc([C@@H]3C[C@H]3NC(=O)OC(C)(C)C)cc2)cc(C(=O)NCc2c(C)cc(C)[nH]c2=O)c1C)C1CCOCC1 (racemic)	5.12 µM	2.45 µM	3.62 µM	> 3 µM	
CCN(c1cc(-c2ccc([C@@H]3C[C@H]3N(Cc3ccccc3OC)C(=O)OC(C)(C)C)cc2)cc(C(=O)NCc2c(C)cc(C)[nH]c2=O)c1C)C1CCOCC1 (racemic)	16.7 µM	> 30 µM	16.9 µM	> 3 µM	
CCN(c1cc(-c2ccc([C@@H]3C[C@H]3NC(=O)OC(C)(C)C)cc2)cc(C(=O)NCc2c(C)c(Br)c(C)[nH]c2=O)c1C)C1CCOCC1 (racemic)	> 30 µM	5.08 µM	24.1 µM		inhibition [8]: Active; inhibition [9]: Active; inhibition [10]: inactive; inhibition [11]: inactive
CCN(c1cc(-c2ccc([C@@H]3C[C@H]3NCC3CC3)cc2)cc(C(=O)NCc2c(C)cc(C)[nH]c2=O)c1C)C1CCOCC1 (racemic)	10.4 µM	> 30 µM	13.8 µM		
CCN(c1cc(-c2ccc([C@@H]3C[C@H]3NC(=O)C(C)(C)C)cc2)cc(C(=O)NCc2c(C)cc(C)[nH]c2=O)c1C)C1CCOCC1 (racemic)	13.3 µM	7.96 µM	4.42 µM		inhibition [8]: inactive; inhibition [9]: inactive
CCN(c1cc(-c2ccc([C@@H]3C[C@H]3N(CC(=O)N3CCOCC3)C(=O)OC(C)(C)C)cc2)cc(C(=O)NCc2c(C)cc(C)[nH]c2=O)c1C)C1CCOCC1 (racemic)	7.83 µM	12.6 µM	5.11 µM	> 3 µM	
CCN(c1cc(-c2ccc([C@@H]3C[C@H]3NCc3ccccc3)cc2)cc(C(=O)NCc2c(C)cc(C)[nH]c2=O)c1C)C1CCOCC1 (racemic)	3.9 µM	9.24 µM	3.41 µM		
CCN(c1cc(-c2ccc([C@@H]3C[C@H]3N)cc2)cc(C(=O)NCc2c(C)cc(C)[nH]c2=O)c1C)C1CCOCC1 (racemic)	16.3 µM	23.9 µM	6.83 µM		
CCN(c1cc(-c2ccc([C@@H]3C[C@H]3NC3CCCCC3)cc2)cc(C(=O)NCc2c(C)cc(C)[nH]c2=O)c1C)C1CCOCC1 (racemic)	4.61 µM	12 µM	5.34 µM		
CCN(c1cc(-c2cccc([C@@H]3C[C@H]3NCC3CCOCC3)c2)cc(C(=O)NCc2c(C)cc(C)[nH]c2=O)c1C)C1CCOCC1 (racemic)	4.81 µM	10.2 µM	5.7 µM		
CCN(c1cc(-c2ccc([C@@H]3C[C@H]3NCc3ccccc3F)cc2)cc(C(=O)NCc2c(C)cc(C)[nH]c2=O)c1C)C1CCOCC1 (racemic)	27.4 µM	> 30 µM	5.39 µM		
CCN(c1cc(-c2ccc([C@@H]3C[C@H]3N(C(=O)OC(C)(C)C)C3CCCCC3)cc2)cc(C(=O)NCc2c(C)cc(C)[nH]c2=O)c1C)C1CCOCC1 (racemic)	24.3 µM	18.1 µM	5.02 µM	> 3 µM	
CCN(c1cc(-c2ccc([C@@H]3C[C@H]3NCC(=O)N3CCNCC3)cc2)cc(C(=O)NCc2c(C)cc(C)[nH]c2=O)c1C)C1CCOCC1 (racemic)	18.9 µM	> 30 µM	4.09 µM		
CCN(c1cc(-c2cccc([C@H]3C[C@@H]3NC(=O)OC(C)(C)C)c2)cc(C(=O)NCc2c(C)cc(C)[nH]c2=O)c1C)C1CCOCC1 (racemic)	21.7 µM	19.3 µM	7.22 µM	> 3 µM	
CCN(c1cc(-c2ccc([C@@H]3C[C@H]3N(Cc3ccccc3F)C(=O)OC(C)(C)C)cc2)cc(C(=O)NCc2c(C)cc(C)[nH]c2=O)c1C)C1CCOCC1 (racemic)	7.13 µM	5.13 µM	5.19 µM	> 3 µM	
CCN(c1cc(-c2ccc([C@@H]3C[C@H]3N(C(=O)OC(C)(C)C)C3CCOCC3)cc2)cc(C(=O)NCc2c(C)cc(C)[nH]c2=O)c1C)C1CCOCC1 (racemic)	8.86 µM	3.27 µM	3.4 µM	> 3 µM	
CCN(c1cc(-c2cccc([C@H]3C[C@@H]3N(CC3CCOCC3)C(=O)OC(C)(C)C)c2)cc(C(=O)NCc2c(C)cc(C)[nH]c2=O)c1C)C1CCOCC1 (racemic)	6.05 µM	3.68 µM	3.38 µM	> 3 µM	
CCN(c1cc(-c2cccc([C@@H]3C[C@H]3N)c2)cc(C(=O)NCc2c(C)cc(C)[nH]c2=O)c1C)C1CCOCC1 (racemic)	26.2 µM	13.5 µM	12.4 µM	> 3 µM	
CCN(c1cc(-c2ccc([C@@H]3C[C@H]3NC3CCOCC3)cc2)cc(C(=O)NCc2c(C)cc(C)[nH]c2=O)c1C)C1CCOCC1 (racemic)	4.39 µM	12.7 µM	3.42 µM		
CCN(c1cc(-c2cccc([C@@H]3C[C@H]3NC3CCOCC3)c2)cc(C(=O)NCc2c(C)cc(C)[nH]c2=O)c1C)C1CCOCC1 (racemic)	10.1 µM	> 30 µM	21 µM		
CCN(c1cc(-c2ccc([C@@H]3C[C@H]3NCC(=O)N3CCOCC3)cc2)cc(C(=O)NCc2c(C)cc(C)[nH]c2=O)c1C)C1CCOCC1 (racemic)	19.7 µM	> 30 µM	6.01 µM		
CCN(c1cc(-c2ccc([C@@H]3C[C@H]3NCc3ccccc3OC)cc2)cc(C(=O)NCc2c(C)cc(C)[nH]c2=O)c1C)C1CCOCC1 (racemic)	4.87 µM	6.41 µM	5.45 µM		
CCN(c1cc(-c2ccc([C@@H]3C[C@H]3N(Cc3ccccc3)C(=O)OC(C)(C)C)cc2)cc(C(=O)NCc2c(C)cc(C)[nH]c2=O)c1C)C1CCOCC1 (racemic)	> 30 µM	> 30 µM	13.8 µM	> 3 µM	
CCN(c1cc(-c2cccc([C@H]3C[C@@H]3N(C(=O)OC(C)(C)C)C3CCOCC3)c2)cc(C(=O)NCc2c(C)cc(C)[nH]c2=O)c1C)C1CCOCC1 (racemic)	6.92 µM	3.87 µM	3.47 µM	> 3 µM	
CCN(c1cc(-c2ccc([C@@H]3C[C@H]3N(CC3CC3)C(=O)OC(C)(C)C)cc2)cc(C(=O)NCc2c(C)cc(C)[nH]c2=O)c1C)C1CCOCC1 (racemic)	18.8 µM	> 30 µM	9.73 µM	> 3 µM	
N[C@@H]1C[C@H]1c1ccccc1.N[C@H]1C[C@@H]1c1ccccc1 (racemic) [TRANYLCYPROMINE]		> 30 µM	> 30 µM		
CCN(c1cc(-c2ccc(CN3CCOCC3)cc2)cc(C(=O)NCc2c(C)cc(C)[nH]c2=O)c1C)C1CCOCC1 [TAZEMETOSTAT]	51.9 µM	> 30 µM	19.5 µM		GI50 [12]: > 30 µM; GI50 [13]: > 30 µM; GI50 [14]: > 30 µM; GI50 [15]: > 30 µM; GI50 [16]: 12 µM; GI50 [17]: 13 µM; Activity [6]: 17.88%; inhibition in vivo at 65 mg/kg [18]: 28.8%; Activity [19]: Non-Toxic; Activity [20]: Non-Toxic
